Assay results from patent US20150105252A1, “SUBSTITUTED PYRAZOLES AS HERBICIDES” (E I DU PONT DE NEMOURS AND COMPANY, priority 2013, published 2015).

Experiments:
ryegrass, Italian [1] = experiment: Test C postemergence; assay type: in vivo, Lolium multiflorum; details: postemergence
From the text: (§1) Seeds of plant species selected from blackgrass (Alopecurus myosuroides), ryegrass, Italian (Italian ryegrass, Lolium multiflorum), wheat (winter wheat, Triticum aestivum), galium (catchweed bedstraw, Galium aparine), corn (Zea mays), crabgrass, large (large crabgrass, Digitaria sanguinalis), foxtail, giant (giant foxtail, Setaria faberii), johnsongrass (Sorghum halepense), lambsquarters (Chenopodium album), morningglory (Ipomoea coccinea), nutsedge, yellow (yellow nutsedge, Cyperus esculentus), pigweed (redroot pigweed, Amaranthus retroflexus), ragweed (common ragweed, Ambrosia elation), soybean (Glycine max), barnyardgrass (Echinochloa crus-galli), oilseed rape (Brassica napus), waterhemp (common waterhemp, Amaranthus rudis), oat, wild (wild oat, Avena fatua), kochia (Kochia scoparia), Surinam grass (Brachiaria decumbens), foxtail, green (green foxtail, Setaria viridis), goosegrass (Eleusine indica), bromegrass, downy (downy bromegrass, Bromus tectorum), nightshade (eastern black nightshade, Solanum ptycanthum), cocklebur (common cocklebur, Xanthium strumarium), cupgrass, woolly (woolly cupgrass, Eriochloa villosa), bermudagrass (Cynodon dactylon), sunflower, (common oilseed sunflower, Helianthus annuus), Russian thistle (Salsola kali), and velvetleaf (Abutilon theophrasti) were planted into a blend of loam soil and sand and treated preemergence with test chemicals formulated in a non-phytotoxic solvent mixture which included a surfactant.
(§2) At the same time, plants selected from these crop and weed species and also chickweed (common chickweed, Stellaria media), canarygrass (littleseed canarygrass, Phalaris minor), and deadnettle (henbit deadnettle, Lamium amplexicaule), were planted in pots containing Redi-Earth® planting medium (Scotts Company, 14111 Scottslawn Road, Marysville, Ohio 43041) comprising spaghnum peat moss, vermiculite, wetting agent and starter nutrients and treated with postemergence applications of test chemicals formulated in the same manner. Plants ranged in height from 2 to 18 cm (1- to 4-leaf stage) for postemergence treatments. Treated plants and controls were maintained in a greenhouse for 13 to 15 days, after which time all species were compared to controls and visually evaluated. Plant response ratings, summarized in Table C, are based on a scale of 0 to 100 where 0 is no effect and 100 is complete control. A dash (-) response means no test result.

barnyardgrass [2] = experiment: Test A postemergence; assay type: in vivo, Echinochloa crus-galli; details: Postemergence
Summary of the method: (§3)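 Both timings tested concurrently in loam/sand soil: preemergence by directed soil spray, postemergence on plants of 2–10 cm at the one- to two-leaf stage. Greenhouse holding period was approximately 10 days before visual injury assessment (0–100, 0 = no effect).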

barnyardgrass [3] = experiment: Test A preemergence; assay type: in vivo, Echinochloa crus-galli; details: 0 to 100 scale
Summary of the method: as §3

ryegrass, Italian [4] = experiment: Test C preemergence; assay type: in vivo, Lolium multiflorum; details: for Plant response rating (scale of 0 to 100), Ryegrass, Italian: Preemergence, 250 g ai/ha; for Ryegrass, Italian plant response rating / Plant response rating, Ryegrass, Italian: preemergence; for Plant response rating, Ryegrass, Italian: 62 g ai/ha, scale 0 to 100, 0 = no effect, 100 = complete control
From the text: as §1, §2

pigweed = experiment: Test C preemergence; assay type: in vivo, Amaranthus retroflexus; details: for Plant response rating (scale of 0 to 100), Pigweed: Preemergence, 250 g ai/ha; for Pigweed plant response rating / Plant response rating, Pigweed: preemergence; for Plant response rating, Pigweed: 62 g ai/ha, scale 0 to 100, 0 = no effect, 100 = complete control
From the text: as §1, §2

soybean = experiment: Test C preemergence; assay type: in vivo, Glycine max; details: for Plant response rating (scale of 0 to 100), Soybean: Preemergence, 250 g ai/ha; for Soybean plant response rating / Plant response rating, Soybean: preemergence; for Plant response rating, Soybean: 62 g ai/ha, scale 0 to 100, 0 = no effect, 100 = complete control
From the text: as §1, §2

wheat = experiment: Test A postemergence; assay type: in vivo, Triticum aestivum
Summary of the method: as §3

oat, wild = experiment: Test C postemergence; assay type: in vivo, Avena fatua; details: for Oat, Wild plant response rating: scale 0 to 100
From the text: as §1, §2

johnsongrass = experiment: Test C postemergence; assay type: in vivo, Sorghum halepense; details: for Johnsongrass plant response rating: scale 0 to 100
From the text: as §1, §2

velvetleaf = experiment: Test A postemergence; assay type: in vivo, Abutilon theophrasti
Summary of the method: as §3

corn = experiment: Test A preemergence; assay type: in vivo, Zea mays; details: 0 to 100 scale
Summary of the method: as §3

[5] = 250 g ai/ha, scale 0 to 100 (0 no effect, 100 complete control)
[6] = 125 g ai/ha, scale 0 to 100, 0 no effect, 100 complete control
[7] = 125 g ai/ha, 0 to 100 scale, 0 no effect, 100 complete control
[8] = 500 g ai/ha, visual rating after approx. 10 days, 0 to 100 scale (0 no effect, 100 complete control)
[9] = Preemergence, 500 g ai/ha, 0 no effect, 100 complete control
[10] = preemergence, 125 g ai/ha, visual injury, approx. 10 days
[11] = 31 g ai/ha, scale 0 to 100 (0 no effect, 100 complete control), 13 to 15 days
[12] = 125 g ai/ha, scale 0 to 100, 0 is no effect, 100 is complete control
[13] = Postemergence, 500 g ai/ha, visual rating after approx. 10 days, 0 to 100 scale (0 no effect, 100 complete control)
[14] = postemergence, 125 g ai/ha, about 10 days, visual rating on 0 to 100 scale (0 no effect, 100 complete control)
[15] = postemergence, 250 g ai/ha, scale 0 to 100 (0 no effect, 100 complete control)
[16] = postemergence, 125 g ai/ha, scale 0 to 100, 0 no effect, 100 complete control
[17] = 62 g ai/ha, scale 0 to 100, 0 no effect, 100 complete control
[18] = 1000 g ai/ha, visual rating after approx. 10 days, 0 to 100 scale (0 no effect, 100 complete control)
[19] = Preemergence, 1000 g ai/ha, 0 no effect, 100 complete control
[20] = Postemergence, 1000 g ai/ha, visual rating after approx. 10 days, 0 to 100 scale (0 no effect, 100 complete control)
[21] = postemergence, 62 g ai/ha, scale 0 to 100, 0 no effect, 100 complete control

Compound | Plant response rating, Ryegrass, Italian (ryegrass, Italian [1]; [5]) | Plant response rating, Ryegrass, Italian (ryegrass, Italian [1]; [6]) | Barnyardgrass plant response rating (barnyardgrass [2]; [7]) | Barnyardgrass plant response rating (barnyardgrass [2]; [8]) | Barnyardgrass plant response rating (barnyardgrass [3]; [9]) | Barnyardgrass plant response rating (barnyardgrass [3]; [10]) | Plant response rating (scale of 0 to 100), Ryegrass, Italian (ryegrass, Italian [4]) | Ryegrass, Italian plant response rating (ryegrass, Italian [4]; [11]) | Plant response rating, Ryegrass, Italian (ryegrass, Italian [4]; 13 to 15 days) | Ryegrass, Italian plant response rating (ryegrass, Italian [4]; [12]) | Plant response rating (scale of 0 to 100), Pigweed (pigweed) | Oat, Wild plant response rating (oat, wild; Postemergence, 31 g ai/ha) | Plant response rating, Oat, Wild (oat, wild; [15]) | Plant response rating, Oat, Wild (oat, wild; [16]) | Johnsongrass plant response rating (johnsongrass; Postemergence, 31 g ai/ha) | Plant response rating, Johnsongrass (johnsongrass; [15]) | Plant response rating, Johnsongrass (johnsongrass; [16]) | Plant response rating, Ryegrass, Italian (ryegrass, Italian [1]; [17]) | Plant response rating, Oat, Wild (oat, wild; [21]) | Plant response rating, Johnsongrass (johnsongrass; [21]) | other results
CCONC(=O)c1cc(CC)n(Cc2cccc(OC(F)(F)F)c2)n1 [Compound 72] | 40 | 15 | 90 | 90 | 100 | 90 | 95 | 40 | 85 | 85 | 100 | 5 | 35 | 20 | 0 | 0 | 0 |  |  |  | Ryegrass, Italian plant response rating (ryegrass, Italian [1]; 62 g ai/ha, scale 0 to 100): 10; Pigweed plant response rating (pigweed; [11]): 100; Plant response rating, Pigweed (pigweed; 13 to 15 days): 100; Pigweed plant response rating (pigweed; [12]): 100; Plant response rating (scale of 0 to 100), Soybean (soybean): 75; Soybean plant response rating (soybean; [11]): 20; Plant response rating, Soybean (soybean; 13 to 15 days): 60; Soybean plant response rating (soybean; [12]): 75; Wheat plant response rating (wheat; [13]): 80; Wheat plant response rating (wheat; [14]): 70; Oat, Wild plant response rating (oat, wild; postemergence, 62 g ai/ha): 5; Johnsongrass plant response rating (johnsongrass; postemergence, 62 g ai/ha): 0; Velvetleaf plant response rating (velvetleaf; [13]): 90; Velvetleaf plant response rating (velvetleaf; [14]): 80; Corn plant response rating (corn; [9]): 70; Corn plant response rating (corn; [10]): 50
CCCNC(=O)c1cc(CC)n(Cc2cccc(OC(F)(F)F)c2)n1 [Compound 27] | 15 | 10 |  |  |  |  |  |  |  |  |  | 10 | 15 | 15 | 0 | 5 | 5 | 5 | 10 | 0 | Barnyardgrass plant response rating (barnyardgrass [2]; [18]): 60; Barnyardgrass plant response rating (barnyardgrass [3]; [19]): 50; Wheat plant response rating (wheat; [20]): 40; Velvetleaf plant response rating (velvetleaf; [20]): 100; Corn plant response rating (corn; [19]): 30
CCc1cc(C(=O)NCC(F)(F)F)nn1Cc1cccc(OC(F)(F)F)c1 [Compound 20] | 25 | 15 |  |  |  |  |  |  |  |  |  | 15 | 20 | 20 | 0 | 10 | 5 | 10 | 15 | 0 | Barnyardgrass plant response rating (barnyardgrass [2]; [18]): 60; Barnyardgrass plant response rating (barnyardgrass [3]; [19]): 80; Wheat plant response rating (wheat; [20]): 40; Velvetleaf plant response rating (velvetleaf; [20]): 90; Corn plant response rating (corn; [19]): 20
CCc1cc(C(=O)NOC(C)C)nn1Cc1cccc(OC(F)(F)F)c1 [Compound 70] | 50 | 35 | 80 | 90 | 100 | 80 | 80 | 20 | 30 | 60 | 100 | 20 | 35 | 30 | 0 | 75 | 10 | 25 | 20 | 0 | Pigweed plant response rating (pigweed; [11]): 100; Plant response rating, Pigweed (pigweed; 13 to 15 days): 100; Pigweed plant response rating (pigweed; [12]): 100; Plant response rating (scale of 0 to 100), Soybean (soybean): 75; Soybean plant response rating (soybean; [11]): 5; Plant response rating, Soybean (soybean; 13 to 15 days): 15; Soybean plant response rating (soybean; [12]): 70; Wheat plant response rating (wheat; [13]): 70; Wheat plant response rating (wheat; [14]): 70; Velvetleaf plant response rating (velvetleaf; [13]): 90; Velvetleaf plant response rating (velvetleaf; [14]): 80; Corn plant response rating (corn; [9]): 80; Corn plant response rating (corn; [10]): 50
